Reference: publication PMC11211886 (Frontiers in Pharmacology, 2024)

What was measured:
CYP2B6 mRNA = assay: CYP induction in human hepatocytes, CYP2B6 mRNA (RT-PCR); details: human five, Gene expression Fold Induction, CYP2B6, donor seven, 1000 µM
Procedure: (§1) […] […] […] Enzyme activity for each CYP isoform was reported as a fold change over vehicle control and the percent of positive control (detailed calculation in Supplementary 1.1). Hepatocytes were harvested with a lysis buffer from RNeasy 96 Kit (Qiagen Inc., Germantown, MD, USA) to isolate RNA, which was analyzed by real-time quantitative polymerase chain reaction (RT-PCR). […] Emax (the maximal observed induction) and EC50 (the concentration that supports half-maximal induction) were estimated by non-linear regression of fold increase in CYP mRNA expression versus concentration plots.
(§2) % of positive control = [(fold change in treated sample)-1] / [(fold change in positive control)-1] × 100
(§3) Based on the gene expression, a minimum of 4-fold increase of positive control compared to vehicle control, a minimum of 2-fold increase of the test article compared vehicle control and increased in a concentration-dependent manner was considered as the cutoff for a positive signal in in vitro induction assay.

P-gp = P-gp (Homo sapiens, UniProt P08183); assay: in vitro; details: human, Caco-2
Chain of P-gp (P08183 whole entry): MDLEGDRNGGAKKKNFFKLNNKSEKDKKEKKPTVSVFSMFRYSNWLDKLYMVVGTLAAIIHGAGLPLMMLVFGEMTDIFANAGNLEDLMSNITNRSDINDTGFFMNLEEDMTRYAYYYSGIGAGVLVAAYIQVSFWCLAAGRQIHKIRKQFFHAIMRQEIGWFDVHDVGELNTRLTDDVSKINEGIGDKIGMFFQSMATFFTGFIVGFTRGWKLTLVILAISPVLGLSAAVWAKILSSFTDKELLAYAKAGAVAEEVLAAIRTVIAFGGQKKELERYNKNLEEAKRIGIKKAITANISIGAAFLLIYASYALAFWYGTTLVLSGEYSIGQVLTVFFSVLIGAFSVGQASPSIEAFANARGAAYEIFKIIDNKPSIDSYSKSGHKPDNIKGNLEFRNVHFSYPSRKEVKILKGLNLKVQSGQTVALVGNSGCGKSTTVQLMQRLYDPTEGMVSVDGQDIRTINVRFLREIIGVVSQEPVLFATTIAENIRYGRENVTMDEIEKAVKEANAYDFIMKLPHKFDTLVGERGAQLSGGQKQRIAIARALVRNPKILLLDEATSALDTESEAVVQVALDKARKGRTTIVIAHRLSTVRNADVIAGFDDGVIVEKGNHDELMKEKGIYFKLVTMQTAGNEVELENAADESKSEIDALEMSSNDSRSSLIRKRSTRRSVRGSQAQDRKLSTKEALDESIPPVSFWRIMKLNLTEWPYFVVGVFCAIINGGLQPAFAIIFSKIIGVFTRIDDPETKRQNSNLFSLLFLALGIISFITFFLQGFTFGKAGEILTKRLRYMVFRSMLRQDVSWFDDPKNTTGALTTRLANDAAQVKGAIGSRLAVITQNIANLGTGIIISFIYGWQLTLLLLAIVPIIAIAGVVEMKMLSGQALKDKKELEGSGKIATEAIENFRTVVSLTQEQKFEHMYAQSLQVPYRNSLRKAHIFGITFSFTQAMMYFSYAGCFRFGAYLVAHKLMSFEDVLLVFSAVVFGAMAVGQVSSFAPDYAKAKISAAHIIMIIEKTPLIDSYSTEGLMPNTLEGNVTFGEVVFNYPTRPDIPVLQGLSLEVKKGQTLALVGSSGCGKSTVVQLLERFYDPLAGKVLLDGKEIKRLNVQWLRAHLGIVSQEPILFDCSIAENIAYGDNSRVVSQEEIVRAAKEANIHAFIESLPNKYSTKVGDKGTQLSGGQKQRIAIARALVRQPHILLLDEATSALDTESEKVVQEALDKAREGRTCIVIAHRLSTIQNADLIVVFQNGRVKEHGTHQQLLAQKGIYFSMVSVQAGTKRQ
Source text: The experimental conditions were similar to those of the permeability study.

CYP2C8 mRNA = assay: in vitro; details: human; for fold induction at 48 h, 25 µM: Gene expression Fold Induction
Procedure: as §1, §2, §3

CYP2C9 = assay: in vitro; details: human; for fold induction at 48 h, 25 µM: Enzyme activity Fold Induction
Procedure: as §1
(§4) The fold of vehicle control and the percent of positive control were calculated with the formulas below:
(§5) Fold of vehicle control = CYPs activity of test compound (or positive control) treated sample / CYPs activity of vehicle control treated sample
as §2
(§6) Based on the enzyme activity, a minimum of 2-fold increase compared to vehicle control for the positive control and ≥40% of the positive control for the test article was considered as the cutoff for a positive signal in in vitro induction assay.

CYP2C8 = assay: in vitro; details: human; for fold induction at 48 h, 25 µM: Enzyme activity Fold Induction
Procedure: as §1, §4, §5, §2, §6

CYP2C19 = assay: CYP induction in human hepatocytes, CYP2C19 enzyme activity; type: in vitro ADME; details: 25 µM
Procedure: as §1, §4, §5, §2, §6

CYP2C9 mRNA = assay: CYP induction in human hepatocytes, CYP2C9 mRNA (RT-PCR); details: for Gene expression Percent of PC (%): 25 µM
Procedure: as §1, §2, §3

OATP1B1 = molecular target: T1, OATP1B1 (Homo sapiens, UniProt Q9Y6L6); assay: OATP1B1 inhibition, β-estradiol 17-(β-D-glucuronide) uptake in transfected HEK293 cells
T1 sequence (Q9Y6L6 1-691): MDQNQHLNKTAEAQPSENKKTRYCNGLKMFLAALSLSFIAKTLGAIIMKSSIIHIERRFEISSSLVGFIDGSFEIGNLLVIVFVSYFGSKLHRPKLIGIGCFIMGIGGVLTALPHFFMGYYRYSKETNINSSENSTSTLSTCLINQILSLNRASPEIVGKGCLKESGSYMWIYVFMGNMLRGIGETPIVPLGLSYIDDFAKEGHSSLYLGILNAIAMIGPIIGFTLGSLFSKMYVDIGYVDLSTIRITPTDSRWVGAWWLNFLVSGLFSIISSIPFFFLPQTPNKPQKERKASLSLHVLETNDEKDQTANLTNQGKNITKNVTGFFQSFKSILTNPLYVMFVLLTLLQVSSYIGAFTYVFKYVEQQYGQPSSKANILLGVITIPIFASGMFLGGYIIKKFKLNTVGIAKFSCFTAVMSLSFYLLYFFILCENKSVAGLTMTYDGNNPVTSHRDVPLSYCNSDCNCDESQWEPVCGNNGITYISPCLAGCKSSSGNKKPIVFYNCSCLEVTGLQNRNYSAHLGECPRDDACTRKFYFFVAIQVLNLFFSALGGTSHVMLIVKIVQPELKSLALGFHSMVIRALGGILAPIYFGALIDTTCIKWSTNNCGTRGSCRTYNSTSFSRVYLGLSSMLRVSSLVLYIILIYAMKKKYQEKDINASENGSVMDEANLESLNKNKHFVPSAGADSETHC
Procedure: (§7) The pre-incubation solutions were removed, and incubation solutions containing the inhibitors and probe substrates (or transport buffer containing an equal volume of vehicle control and probe substrates) were added and incubated at 37°C for 2 min (5 min for OATP1B3). The probe substrate for OAT1 was 4-aminohippuric acid (10 μM), for OAT3 was estrone 3-sulfate (10 μM), for OCT2 was metformin (100 μM), for OATP1B1 was β-estradiol 17-(β-D-glucuronide) (5 μM), for OATP1B3 was β-estradiol 17-(β-D-glucuronide) (10 μM), and for MATE1 and MATE2-K was tetraethylammonium (10 μM). After incubation, cells were washed three times with ice-cold transport buffer (25 mM HEPES, pH 7.4, pH 8.0 for overexpressing MATE1 and MATE2-K HEK293 cells) and lysed in distilled water. The concentrations of probe substrates were determined by LC-MS/MS, and a BCA Kit (Solarbio ®Life Sciences, Beijing, China) was used to determine the protein content in the cell lysate.
(§8) where C is the concentration of the drug in the cell lysate (nM), P is the protein concentration of the cell lysate (mg/mL), and T is the incubation time (minute). Uptake ratetest compound is the uptake rate of the substrate in the presence of the test compound. Uptake ratevehicle control is the uptake rate of the substrate in the presence of the vehicle control. Uptake ratepassive is the uptake rate of the substrate in the presence of the positive inhibitor at the top test concentration.

OATP1B3 = molecular target: T2, OATP1B3 (Homo sapiens, UniProt Q9NPD5); assay: OATP1B3 inhibition, β-estradiol 17-(β-D-glucuronide) uptake in transfected HEK293 cells
T2 sequence (Q9NPD5 1-702): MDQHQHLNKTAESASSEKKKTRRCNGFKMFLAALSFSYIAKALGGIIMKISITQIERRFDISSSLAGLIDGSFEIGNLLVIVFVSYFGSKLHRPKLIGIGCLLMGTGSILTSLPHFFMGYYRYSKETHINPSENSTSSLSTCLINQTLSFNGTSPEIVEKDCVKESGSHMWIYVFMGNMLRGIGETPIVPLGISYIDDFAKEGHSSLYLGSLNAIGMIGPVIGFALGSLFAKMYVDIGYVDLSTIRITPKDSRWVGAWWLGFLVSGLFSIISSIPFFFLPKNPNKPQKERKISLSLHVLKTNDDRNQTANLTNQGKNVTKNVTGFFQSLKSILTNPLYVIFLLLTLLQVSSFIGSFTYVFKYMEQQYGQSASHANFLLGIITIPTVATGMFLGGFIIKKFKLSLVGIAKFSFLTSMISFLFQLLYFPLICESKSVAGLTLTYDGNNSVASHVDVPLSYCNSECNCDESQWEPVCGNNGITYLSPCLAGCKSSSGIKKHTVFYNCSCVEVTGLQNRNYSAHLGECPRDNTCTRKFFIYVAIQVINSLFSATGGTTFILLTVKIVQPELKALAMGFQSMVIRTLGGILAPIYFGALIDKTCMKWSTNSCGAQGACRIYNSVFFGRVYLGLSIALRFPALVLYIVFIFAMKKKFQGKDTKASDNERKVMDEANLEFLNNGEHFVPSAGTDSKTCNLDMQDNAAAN
Procedure: as §7, §8

Question: How did the fold induction at 48 h, 1000 µM (CYP2B6 mRNA) turn out when `CCC1(c2ccccc2)C(=O)NC(=O)NC1=O` [Phenobarbital] was run?
Answer: 9.45

Question: How did the Papp B→A at 60 min, 5 µM (P-gp) turn out when `C[C@H]1O[C@@H](O[C@H]2[C@@H](O)C[C@H](O[C@H]3[C@@H](O)C[C@H](O[C@H]4CC[C@@]5(C)[C@H](CC[C@@H]6[C@@H]5C[C@@H](O)[C@]5(C)[C@@H](C7=CC(=O)OC7)CC[C@]65O)C4)O[C@@H]3C)O[C@@H]2C)C[C@H](O)[C@@H]1O` [Digoxin, reference compound] was run?
Answer: 25 ×10⁻⁶ cm/s

Question: Which “Gene expression Percent of PC (%)” value (CYP2C8 mRNA; female, 48 h, 25 µM) does the source give for `CCOC(=O)c1ncn2c1CN(C)C(=O)c1cc(F)ccc1-2` [Flumazenil] here?
Answer: 15.4%

Question: And the fold induction at 48 h, 25 µM (CYP2C8 mRNA; female)?
Answer: 1.89

Question: And the “Gene expression Fold Induction” value (CYP2C8 mRNA; male, 48 h, 25 µM)?
Answer: 0.92 fold

Question: And the fold induction at 48 h, 25 µM (CYP2C8 mRNA; male)?
Answer: 1.05

Question: And the “Enzyme activity Percent of PC (%)” value (CYP2C9; female, 48 h, 25 µM)?
Answer: 6.88%

Question: What about the fold induction at 48 h, 25 µM (CYP2C9; female) of the same molecule?
Answer: 1.11

Question: What about the “Enzyme activity Fold Induction” value (CYP2C9; male, 48 h, 25 µM) of the same molecule?
Answer: 1.14 fold

Question: What about the fold induction at 48 h, 25 µM (CYP2C9; male) of the same molecule?
Answer: 1.05

Question: What about the “Enzyme activity Percent of PC (%)” value (CYP2C8; female, 48 h, 25 µM) of the same molecule?
Answer: 3.75%

Question: What about the fold induction at 48 h, 25 µM (CYP2C8; female) of the same molecule?
Answer: 1.18

Question: What about the “Enzyme activity Fold Induction” value (CYP2C8; male, 48 h, 25 µM) of the same molecule?
Answer: 1.39 fold

Question: And the fold induction at 48 h, 25 µM (CYP2C8; male)?
Answer: 1.05

Question: And the “Enzyme activity Percent of PC (%)” value (CYP2C19; CYP2C19, donor eight)?
Answer: -3.72%

Question: And the “Enzyme activity Percent of PC (%)” value (CYP2C19; CYP2C19, donor four)?
Answer: -3.91%

Question: And the “Enzyme activity Percent of PC (%)” value (CYP2C19; CYP2C19, donor one)?
Answer: 1.83%

Question: And the fold induction at 48 h, 25 µM (CYP2C19; human three, cryopreserved human hepatocytes, probe S-(+)-mephenytoin (80 µM), CYP2C19, donor eight)?
Answer: 0.87

Question: And the “Gene expression Percent of PC (%)” value (CYP2C9 mRNA; CYP2C9, donor eight)?
Answer: 12.1%

Question: And the “Gene expression Percent of PC (%)” value (CYP2C9 mRNA; CYP2C9, donor four)?
Answer: 19.7%

Question: What about the “Gene expression Percent of PC (%)” value (CYP2C9 mRNA; CYP2C9, donor one) of the same molecule?
Answer: 25.6%

Question: And the fold induction at 48 h, 25 µM (CYP2C9 mRNA; female, human)?
Answer: 1.83

Question: And the fold induction at 48 h, 25 µM (CYP2C9 mRNA; human three, cryopreserved human hepatocytes (donor four))?
Answer: 1.52

Question: What about the fold induction at 48 h, 25 µM (CYP2C9 mRNA; male, human, cryopreserved human hepatocytes) of the same molecule?
Answer: 1.53

Question: For `CO[C@H]1/C=C/O[C@@]2(C)Oc3c(C)c(O)c4c(O)c(c(/C=N/N5CCN(C)CC5)c(O)c4c3C2=O)NC(=O)/C(C)=C\C=C\[C@H](C)[C@H](O)[C@@H](C)[C@@H](O)[C@@H](C)[C@H](OC(C)=O)[C@@H]1C` [Rifampicin, reference compound], which IC50 (OATP1B1) is on record?
Answer: 0.866 µM

Question: And the Percentage transported (OATP1B1; human, 2 min, 10 μM, pH 7.4)?
Answer: 0.00%

Question: And the Uptake rate (OATP1B1; human, 2 min, 10 μM, pH 7.4)?
Answer: 3.03±0.536 pmol/mg protein/min

Question: What about the IC50 (OATP1B3) of the same molecule?
Answer: 0.611 µM

Question: And the Percentage transported (OATP1B3; human, 5 min, 10 μM, pH 7.4)?
Answer: 0.00%

Question: What about the Uptake rate (OATP1B3; human, 5 min, 10 μM, pH 7.4) of the same molecule?
Answer: 4.46±0.829 pmol/mg protein/min

Question: What about the inhibition at 5 min, 10 µM (OATP1B3; human, pH 7.4) of the same molecule?
Answer: 100%
